Consider nine molecules from paper PMC11356819 (Molecules, 2024).

Read-outs that look alike come from different tables or passages of the source.

One data set relates to U87-mIDH cells. Briefly: cellular uptake in U87-mIDH cells. The class given is cell-based, human. Particulars: U87-mIDH cells; for cellular uptake: incubation 1 h. On the procedure: (§1) Consistent with this assumption, uptake of [^18F]4 and, to a lesser extent, the ^18F-fluoroethoxylated analog [^18F]5 by both cell lines was considerably higher than that of (S)-[^18F]2.
(§2) Human glioblastoma cells with a c.395G>A knock-in mutation encoding mIDH1R132H (HTB-14IG™) and the corresponding wildtype cells (HTB-14™) were purchased from the American Type Culture Collection (ATCC). The cells were grown under standard culture conditions (5% CO2 and 95% air at 37 °C) in Eagle’s Minimum Essential Medium (MEM) supplemented with 10% fetal bovine serum (FBS) and antibiotics (penicillin–streptomycin mixed solution, Gibco, Thermo Fisher Scientific, Oberhausen, Germany).
(§3) For the cellular uptake studies, 1.5 × 10^5 cells were seeded into gelatin-coated 12-well transwell plates and incubated in 1 mL MEM (without FBS and antibiotics) containing 18.5 kBq (0.5 µCi) of the corresponding radiotracer. After incubation at 21 °C for 1 h, the supernatant was collected, the cells were lysed with 40 mM NaOH and the radioactivity of both fractions was measured with a gamma counter. The total protein concentration of the cell lysate was measured by a bicinchoninic acid (BCA) assay. The radiotracer uptake was calculated as the ratio of radioactivity in the cell fraction and the supernatant and normalized by protein content (% uptake/100 µg protein). Statistical analysis of the results was performed with Originlab Pro 2023b using two-tailed t-tests with a significance level of 0.05 to identify significant differences between groups.

Data set [1] is described as follows: lipophilicity by shake-flask method (n-octanol/water or PBS). The data set is classed as physicochemical. Particulars: triplicate; for logD: n-octanol/PBS pH 7.4, shake-flask, read-out: logD7.4 Exp. Determined; for logP: n-octanol/water, shake-flask. On the procedure: As a measure for the lipophilicity of the four radiolabeled probes, their partition coefficients (logP) and distribution coefficients at pH 7.4 (logD7.4) were determined by the shake-flask method. Table 1 summarizes the results of these experiments and compares them with the predicted logD7.4 values calculated using the ADMETlab platform.
A solution of the corresponding radiotracer in DMSO (1 µL) was added to a mixture of n-octanol and PBS (pH = 7.4) or water (750 µL of each) in a 2 mL Eppendorf vial and the vial was vortexed for 2 min and centrifuged for another 2 min to separate the two phases. A total of 300 µL of the upper n-octanol phase was then carefully removed from the top, while 300 µL of the aqueous phase was removed by piercing the bottom of the vial with a syringe and cannula to avoid contact with the organic phase. Both fractions were transferred into fresh vials and counted in a gamma counter to determine the ratio between the activity in the organic and the aqueous phase. All measurements were performed in triplicate and the results are expressed as mean ± standard deviation of the logarithm of the partition coefficient between n-octanol and water (logP) or the logarithm of the distribution coefficient between n-octanol and PBS (logD7.4), respectively.

For data set [2], the target named is T1, mIDH1R132H (Homo sapiens, UniProt O75874, R132H).
T1 construct: purchased BPS Bioscience, San Diego, CA, USA
Kind of data set: enzymatic inhibition assay with commercial IDH1 (R132H) kit. The class given is biochemical. Particulars: for Amax (fit parameter) / Amin (fit parameter) / Hill slope: Hill fit; for Amax (fit parameter) / Amin (fit parameter) / Hill slope / IC50: parentheses = 95% CI; for IC50: non-labeled compounds, n = 3, read-out: IC50 for suppression of mIDH1R132H. On the procedure:
The inhibitory activity of the candidate probes against mIDH1 was evaluated by enzymatic assays with serially diluted solutions of the non-labeled compounds using a commercially available assay kit (IDH1 (R132H) from BPS Bioscience, San Diego, CA, USA). IC50 values were determined with GraphPad Prism 4.00 by fitting the resulting dose-response curves with the Hill function.
Data are shown as mean ± standard deviation (n = 3). For additional fit parameters and 95% confidence intervals, see Table S12 in Section S4.1.4 of Supplementary Materials. TEXT PRINTED IN THE PICTURE: (S)-2: IC50 [nM]: 102 | (R)-2: IC50 [nM]: 1358 | 4: IC50 [nM]: 713 | 5: IC50 [nM]: 8279
4.1.4. Inhibitory potency (IC50)
Values in parenthesis indicate 95% confidence intervals.

Data set [3] is described as follows: stability of reference compounds in DMSO. The class given is physicochemical. Particulars: room temperature, at least 28 h, non-labeled reference compounds. The procedure:
The in vitro stability of the radiolabeled probes was evaluated by incubation studies with phosphate-buffered saline (PBS) and rat serum.
A solution of the corresponding reference compound in DMSO (1 mg/mL) was incubated at room temperature for 28–30 h, during which aliquots were removed every few hours and analyzed by analytical HPLC. The fraction of intact reference compound at each time point was calculated by dividing the peak area of the reference compound by the total area of all peaks in the chromatogram and plotted as a function of time.

In data set [4] the target is T1, mIDH1R132H. Particulars: cited from earlier work.
The subject of another data set is U87-WT cells. Briefly: cellular uptake in U87-WT cells. Particulars: incubation 1 h. The data set is classed as cell-based, human. The procedure: as §1, §2, §3

T1 sequence (O75874 whole entry R132H): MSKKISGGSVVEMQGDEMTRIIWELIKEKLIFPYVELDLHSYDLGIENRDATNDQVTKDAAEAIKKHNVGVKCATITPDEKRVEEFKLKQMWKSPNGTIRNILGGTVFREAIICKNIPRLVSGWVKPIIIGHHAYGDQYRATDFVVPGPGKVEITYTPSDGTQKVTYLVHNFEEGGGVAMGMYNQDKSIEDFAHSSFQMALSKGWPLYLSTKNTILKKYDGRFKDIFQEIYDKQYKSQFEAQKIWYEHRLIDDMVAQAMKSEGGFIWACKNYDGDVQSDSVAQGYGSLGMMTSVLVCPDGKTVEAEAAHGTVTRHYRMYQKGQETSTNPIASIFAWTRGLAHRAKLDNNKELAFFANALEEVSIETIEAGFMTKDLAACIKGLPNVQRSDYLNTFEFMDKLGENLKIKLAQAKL

With `C[C@@H](Nc1ccc(C#N)n(C)c1=O)c1cc2cc([18F])ccc2[nH]c1=O` [(R)-[^18F]2], in the data set on U87-mIDH cells, the cellular uptake is listed as 0.5 ± 0.1 % per 100 µg protein. In data set [1], the logD is 2.51 ± 0.11; the logP (commonly the decadic logarithm of the partition coefficient of the neutral form, usually between octanol and water) is listed as “negative”.
In the case of `N#Cc1ccc(NCc2cc3cc(F)ccc3[nH]c2=O)cc1OCCF` [compound 5, 4-(((6-Fluoro-2-oxo-1,2-dihydroquinolin-3-yl)methyl)amino)-2-(2-fluoroethoxy)benzonitrile], at mIDH1R132H [2], the “Amax (fit parameter)” value was 41 (36−45) %; the “Amin (fit parameter)” value is recorded as 3 (2−3) %; the Hill slope (in general, a measure of the steepness of the concentration-response curve) was 2.1 (1.6−2.7); the IC50 (commonly the concentration that gives 50% inhibition) worked out at 8280 nM. Moreover, the “decomposition in DMSO” value in data set [3] is “less than 10%”.
For `COc1cc(NCc2cc3cc(Cl)ccc3[nH]c2=O)ccc1C#N` [compound 3], on mIDH1R132H [4], the “Selectivity (ratio of biochemical IC50 values for mIDH1R132H and the wildtype enzyme)” value is recorded as over 700.
On to `CC(Nc1ccc(C#N)n(C)c1=O)c1cc2cc(F)ccc2[nH]c1=O` (centres unmarked) [mIDH-23], for which the IC50 on mIDH1R132H [4] (biochemical assays, read-out: IC50 (reported potency for inhibition of mIDH1R132H)) was 23 nM. Also, the “Selectivity (ratio of biochemical IC50 values for mIDH1R132H and the wildtype enzyme)” value at mIDH1R132H [4] is over 400.
For the molecule `C[C@@H](Nc1ccc(C#N)n(C)c1=O)c1cc2cc(F)ccc2[nH]c1=O` [(R)-2, (R)-5-[{1-(6-Fluoro-2-oxo-1,2-dihydroquinoline-3-yl)ethyl}amino]-1-methyl-6-oxo-1,6-dihydropyridine-2-carbonitrile], at mIDH1R132H [2], the “fold higher IC50 value relative to (S)-enantiomer” value is on record as over 10 fold, the “Amax (fit parameter)” value is given as 79 (72−87) %, the “Amin (fit parameter)” value is recorded as 28 (25−31) % and the Hill slope is 3.0 (1.3−4.8). At mIDH1R132H [2], the IC50 was determined as 1360 nM.
`COc1cc(NCc2cc3cc(F)ccc3[nH]c2=O)ccc1C#N` [compound 4, 4-{[(6-Fluoro-2-oxo-1,2-dihydroquinolin-3-yl)methyl]amino}-2-methoxybenzonitrile]: at mIDH1R132H [2], the “fold lower potency than (S)-2 in functional assays” value is given as “roughly 7 fold”, the “Amax (fit parameter)” value is 98 (96−100) %, the “Amin (fit parameter)” value is 1.8 (0.6−3.0) % and the Hill slope is given as 2.8 (2.5−3.0). Also, the IC50 on mIDH1R132H [2] turned out to be 713 nM. In data set [3], the “decomposition in DMSO” value is “less than 10%”.
For the molecule `C[C@H](Nc1ccc(C#N)n(C)c1=O)c1cc2cc([18F])ccc2[nH]c1=O` [(S)-[^18F]2], in the data set on U87-mIDH cells, the “fold higher cellular uptake than (R)-[^18F]2” value is “approx. 2 fold” and the cellular uptake is reported as 0.9 ± 0.2 % per 100 µg protein. Also, the logD in data set [1] worked out at 2.51 ± 0.11. Further, the cellular uptake in the data set on U87-WT cells is listed as 1.2 ± 0.7 % per 100 µg protein.
Consider `C[C@H](Nc1ccc(C#N)n(C)c1=O)c1cc2cc(F)ccc2[nH]c1=O` [(S)-2, (S)-5-[{1-(6-Fluoro-2-oxo-1,2-dihydroquinoline-3-yl)ethyl}amino]-1-methyl-6-oxo-1,6-dihydropyridine-2-carbonitrile], for which, on mIDH1R132H [2], the “Amax (fit parameter)” value is 95 (93−97) %, the “Amin (fit parameter)” value is listed as 33 (30−35) %, the Hill slope is recorded as 5.6 (4.0−7.2) and the IC50 amounted to 102 nM. Also, the “decomposition in DMSO” value in data set [3] is on record as “no decomposition”.
For `N#Cc1ccc(NCc2cc3cc(F)ccc3[nH]c2=O)cc1OCC[18F]` [[^18F]5], the figures for the cellular uptake in the data set with U87-mIDH cells and in the data set with U87-WT cells were 3.2 ± 0.6 % per 100 µg protein and 3.7 ± 0.6 % per 100 µg protein, respectively. Besides, the logD in data set [1] is 2.72 ± 0.06. Besides, the logP in data set [1] (read-out: logP) was found to be 2.77 ± 0.03.
